Measurements taken from paper PMC12652113, “Fluorescent Albumin-Binding N-Propylbenzene Indolenine-Based Squaraines as Potential Candidates for Prostate Cancer Photodynamic Therapy Photosensitizers” (International Journal of Molecular Sciences, 2025).
Entries after “also recorded” stand apart in the source; their conditions may differ. Read-outs that look alike come from different tables or passages of the source.

Legend:
[1] = Singlet oxygen generation, 1,3-diphenylisobenzofuran (DPBF) assay; type: physicochemical; settings: DMSO; LED irradiation; relative to benzoselenazole squaraine reference
Experimental: The ability of the squaraine dyes to generate singlet oxygen was assessed using the 1,3-diphenylisobenzofuran (DPBF) assay. In this method, squaraine solutions were incubated with DPBF and irradiated for different time intervals, followed by the monitoring of absorbance at 410 nm. A progressive decrease in DPBF absorbance was observed upon irradiation for all synthesized compounds, confirming their ability to produce this reactive oxygen species. However, it should be emphasized that the reference squaraine dye induced a sharp reduction in DPBF absorbance within a short irradiation period, with the decay being limited only by its intrinsic photoinstability.
Singlet oxygen production was assessed by monitoring the bleaching of 1,3-diphenylisobenzofuran (DPBF) at 410 nm. Fresh solutions of squaraine dyes (20 µM) and DPBF (0.1 mM) were introduced into 96-well plates, and decreases in absorbance were recorded before and after irradiation at defined time intervals. Quantum yields of singlet oxygen generation (ΦΔ) were determined by comparing the slopes of DPBF degradation for the squaraine dyes [S(dye)] with those of a benzoselenazole squaraine reference dye [S(ref), ΦΔ = 0.10], according to established linear regression procedures (Equation (1)). In parallel, photodegradation of the squaraines was monitored by following changes in their absorbance over time, with normalization applied to enable direct comparison across samples.(1) ΦΔdye=ΦΔref × Sdye/Sref

[2] = Aggregation behavior (Vis absorption in phosphate buffer, with or without Triton X-100); type: physicochemical; settings: phosphate buffer vs DMSO
Experimental: Squaraine dyes were dissolved in dimethyl sulfoxide, whereas zinc phthalocyanine required dimethylformamide as a solvent. All stock solutions were prepared at 0.67 mM concentration and stored in the dark at 4 °C until further use. For spectroscopic characterization, 1.0 µM stock solutions of the squaraine dyes in dimethyl sulfoxide were serially diluted into a series of solvents (chloroform, dimethyl sulfoxide, methanol, and phosphate buffer) to obtain at least five defined concentrations. The absorption spectra of these dilutions were recorded and used to calculate molar extinction coefficients according to the Beer–Lambert law. Additional working solutions at a 1.0 µM concentration were prepared in dimethyl sulfoxide and buffer, and 1.0% Triton X-100 was added where required to investigate dye aggregation.

[3] = biological target: human serum albumin (HSA) (Homo sapiens, UniProt P02768); assay: Fluorometric squaraine-albumin binding titration; settings: for detection limit (DL): HSA detection, DL=3σ/S; for quantification limit (QL): HSA quantification, QL=10σ/S; for fluorescence intensity without protein (F0): dye 2.0 µM in phosphate buffer, no HSA; for fluorescence intensity at the highest protein concentration (F): dye 2.0 µM, highest HSA concentration; for Stokes shift (ΔS) / absorption maximum (λabs) / emission maximum (λem) / fluorescence quantum yield (ΦF): phosphate buffer (pH 7.4), HSA presence; for incubation time for maximum interaction with HSA / incubation time to reach maximum fluorescence with HSA: read at 0 min, 3 h, 24 h; for F/F0: ratio of fluorescence with HSA to fluorescence without HSA; for incubation time to reach maximum fluorescence with HSA: room temperature, protected from light
human serum albumin (HSA), sequence (P02768 25-609): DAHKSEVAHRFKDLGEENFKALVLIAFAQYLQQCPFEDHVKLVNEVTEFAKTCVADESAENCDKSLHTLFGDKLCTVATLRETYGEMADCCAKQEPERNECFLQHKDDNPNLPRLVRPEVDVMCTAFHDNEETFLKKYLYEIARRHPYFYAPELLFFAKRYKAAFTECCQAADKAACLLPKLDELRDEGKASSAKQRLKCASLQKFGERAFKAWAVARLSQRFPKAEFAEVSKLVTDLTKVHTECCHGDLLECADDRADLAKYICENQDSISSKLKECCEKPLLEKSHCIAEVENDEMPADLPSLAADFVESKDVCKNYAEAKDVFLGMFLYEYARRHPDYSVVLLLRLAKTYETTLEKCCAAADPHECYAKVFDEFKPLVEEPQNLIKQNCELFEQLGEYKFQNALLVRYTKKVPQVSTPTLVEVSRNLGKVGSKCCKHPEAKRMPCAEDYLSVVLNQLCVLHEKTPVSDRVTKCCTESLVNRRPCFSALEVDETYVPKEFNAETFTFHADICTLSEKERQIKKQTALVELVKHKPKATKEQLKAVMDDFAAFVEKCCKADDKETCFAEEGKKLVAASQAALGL
Experimental: For fluorometric experiments, the squaraine stock solutions were initially prepared in dimethylformamide and subsequently diluted with phosphate buffer for the protein–dye interaction analysis. Human serum albumin stock solution was then added to these mixtures, while keeping the dye concentration fixed at 2.0 µM and varying the protein concentration from 0 to 3.0 µM (0.0 to 3.0 µM for squaraines 5, 9, and 11, and from 0 to 6.0 µM for squaraine 13). Fluorescence intensities of the resulting solutions were recorded after 0, 3, and 24 h of incubation with the protein. The excitation wavelengths and excitation/emission slit widths used for the measurements were optimized for each dye, as listed in Table 6.
The squaraine-albumin binding constants was calculated using the Benesi–Hildebrand equation (Equation (3)) based on the data obtained from the fluorescence experiments:(3) 1/Fx−F0=1/F∞−F0+1/Kb(F∞−F0)1/[HSA] where F0 is the fluorescence intensity of the squaraine in albumin-free buffer, Fx is the fluorescence observed after protein incubation at a specific concentration, F∞ is the fluorescence at the point of complete interaction, Kb is the binding constant, and [HSA] is the albumin concentration.
Quantification and detection limits (QL and DL, respectively) were determined from a calibration curve of maximum fluorescence intensity against protein concentration. The slope of this curve was then used to calculate the method’s sensitivity using Equations (4) and (5):(4) QL=10σ/S (5) DL=3σ/S where σ refers to the blank standard deviation and S (sensitivity) to the linear regression slope between the fluorescence intensity and albumin concentration.

[4] = tested on: normal human dermal fibroblasts (NHDF); assay: MTT dark and light-induced cytotoxicity in NHDF; type: cell-based; settings: for IC50: Homo sapiens, 24 h incubation; for IC50 / Photodynamic ratio (PTR): NHDF; for Photodynamic ratio (PTR): IC50 dark/IC50 irradiated
Experimental: For potential applicability as photosensitizers in PDT, these candidates are expected to display cytotoxic effects only after photoactivation, namely, and preferably restricted to target tissue cells, without inducing damage to healthy counterparts. To evaluate this, prostate adenocarcinoma PC-3 cells and non-tumoral NHDF fibroblasts were incubated with increasing concentrations of the squaraine dyes for 24 h. Subsequently, the cells were irradiated using an LED system centered at 663 nm, a wavelength close to the absorption maximum of the monomeric dye forms. Twenty-four hours post-irradiation, cellular metabolic activity was assessed by the MTT assay.
The in cell photocytotoxicity of the squaraine dyes was assessed using the MTT assay. When cells reached 90–95% confluence, they were trypsinized using a trypsin-EDTA solution (0.125 g/L trypsin, 0.02 g/L EDTA), counted via trypan-blue exclusion in a Neubauer chamber, and diluted to 2 × 10^4 cells/mL. A 100 µL aliquot of this suspension was seeded into each well of 96-well plates and incubated for 48 h to allow for cell attachment and resumption of proliferation.
After this period, the medium was removed, and cells were treated with various concentrations of the squaraine dyes (0.01, 0.1, 1, 2.5, 5, and 10 µM) in the appropriate culture medium. […] Negative controls consisted of cells exposed only to culture medium. All experiments were performed in quadruplicate and independently repeated.
After 24 h of exposure to the dyes, the cells were subjected to two different irradiation conditions: the first group was not irradiated and was protected from ambient light for 21 min, and the second group was irradiated for 7 min.
Twenty-four hours post-irradiation, the culture medium was removed, cells were washed with 100 µL PBS, and 100 µL of MTT solution (5 mg/mL in serum- and antibiotic-free medium) was added per well. Cells were incubated for 4 h at 37 °C, after which the supernatant was discarded, and the formazan crystals were solubilized in dimethyl sulfoxide. Absorbance was measured at 570 nm using a Bio-Rad xMark microplate reader.
Cell viability was expressed as the percentage of absorbance in treated samples relative to the untreated negative control. Data were statistically analyzed by ordinary two-way ANOVA followed by the Šidák multiple comparisons test, comparing irradiated and non-irradiated conditions at the same concentration, with differences considered statistically significant at a p-value < 0.05. Half-maximal inhibitory concentration values reported in this work were obtained by fitting the data to a sigmoidal model with a 95% confidence interval. All assays were performed in quadruplicate and replicated independently at least twice. Phototoxicity and tumor selectivity ratios were quantified according to Equations (6) and (7):(6) PTR = IC50 dark condition/IC50 irradiated condition (7) TSR = IC50 for NHDF cells under irradiated condition/IC50 for cancer cell line under irradiated condition
Irradiation was performed using a light-emitting diode array centered at 663 ± 8 nm to match the absorption maximum of the dyes. The LED (Roithner; 8.3 mW radiant flux) was integrated into flat-bottom 96-well plates and powered by a regulated current source. The irradiance was 15.8 mW/cm^2, and the total energy delivered per well was 3.49 J after 7 min, ensuring precise light dosing for all experiments.

[5] = slope of fluorescence intensity vs HSA concentration
[6] = light or radiation study, Light, 7 min LED 663 nm, MTT 24 h post-irradiation
[7] = phosphate buffer, bound vs free

Structure (SMILES): CNC1=C(C=C2N(CCCc3ccccc3)c3ccccc3C2(C)C)C(=O)C1=CC1=[N+](CCCc2ccccc2)c2ccccc2C1(C)C.[I-] [Dye 11, 2-{3-[3,3-Dimethyl-1-(3-phenylpropyl)indolin-2-ylidenemethyl]-2-(methylamino)-4-oxocyclobut-2-en-1-ylidenemethyl}-3,3-dimethyl-1-(3-phenylpropyl)-indol-1-ium Iodide]
- singlet oxygen quantum yield (ΦΔ) [1]: <0.01
- aggregation behavior [2]: coexistence of H- and J-type aggregates; also recorded: lowest tendency to aggregate
- detection limit (DL) [3]: 420 nM
- quantification limit (QL) [3]: 1401 nM
- fluorescence intensity without protein (F0) [3]: 1.00 a.u.
- fluorescence intensity at the highest protein concentration (F) [3]: 360.94 a.u.
- Stokes shift (ΔS) [3]: 10 nm
- absorption maximum (λabs) [3]: 652 nm
- emission maximum (λem) [3]: 662 nm
- fluorescence quantum yield (ΦF) [3]: 0.04
- incubation time for maximum interaction with HSA [3]: immediately upon addition to the protein solution
- sensitivity (S) [3, 5]: 119 µM
- IC50 [4, 6]: 3.24 µM
- IC50 ([4]; Dark, MTT 24 h later): 6.57 µM
- Photodynamic ratio (PTR) [4]: 2.0

Structure (SMILES): CC1(C)C(=CC2=C(N)C(=CC3=[N+](CCCc4ccccc4)c4ccccc4C3(C)C)C2=O)N(CCCc2ccccc2)c2ccccc21.[I-] [Dye 9, 2-{2-Amino-3-[3,3-dimethyl-1-(3-phenylpropyl)indolin-2-ylidenemethyl]-4-oxocyclobut-2-en-1-ylidenemethyl}-3,3-dimethyl-1-(3-phenylpropyl)-indol-1-ium Iodide]
- singlet oxygen quantum yield (ΦΔ) [1]: <0.01
- aggregation behavior [2]: coexistence of H- and J-type aggregates
- sensitivity (S) [3]: 318000 nM⁻¹
- detection limit (DL) [3]: 324 nM
- quantification limit (QL) [3]: 1079 nM
- fluorescence intensity without protein (F0) [3]: 9.30 a.u.
- fluorescence intensity at the highest protein concentration (F) [3]: 917.53 a.u.
- Stokes shift (ΔS) [3]: 8 nm
- absorption maximum (λabs) [3]: 651 nm
- emission maximum (λem) [3]: 659 nm
- fluorescence quantum yield (ΦF) [3]: 0.07
- F/F0 [3]: 98.66
- incubation time for maximum interaction with HSA [3]: immediately upon addition to the protein solution
- sensitivity (S) [3, 5]: 318 µM
- IC50 [4, 6]: 3.79 µM
- IC50 ([4]; Dark, MTT 24 h later): 6.8 µM
- Photodynamic ratio (PTR) [4]: 1.8

Structure (SMILES): CC1(C)C(=CC2=C([O-])C(=CC3=[N+](CCCc4ccccc4)c4ccccc4C3(C)C)C2=O)N(CCCc2ccccc2)c2ccccc21 [Dye 5, 4-[3,3-Dimethyl-1-(3-phenylpropyl)-indol-1-ium-2-ylmethylene]-2-[3,3-dimethyl-1-(3-phenylpropyl)indolin-2-ylidenemethyl]-3-oxocyclobut-1-en-1-olate]
- singlet oxygen quantum yield (ΦΔ) [1]: <0.01
- aggregation behavior [2]: coexistence of H- and J-type aggregates
- sensitivity (S) [3]: 209000 nM⁻¹
- detection limit (DL) [3]: 266 nM
- quantification limit (QL) [3]: 886 nM
- fluorescence intensity without protein (F0) [3]: 11.46 a.u.
- fluorescence intensity at the highest protein concentration (F) [3]: 680.15 a.u.
- Stokes shift (ΔS) [3]: 45 nm
- absorption maximum (λabs) [3]: 604 nm
- emission maximum (λem) [3]: 649 nm
- fluorescence quantum yield (ΦF) [3]: 0.20
- blue shift in maximum emission wavelength upon HSA binding [3, 7]: 47 nm
- reduction in Stokes shift upon HSA binding [3, 7]: 50%
- F/F0 [3]: 59.35
- incubation time to reach maximum fluorescence with HSA [3]: 24 h
- sensitivity (S) [3, 5]: 209000 nM⁻¹
- IC50 [4, 6]: 7.41 µM
- IC50 ([4]; Dark, MTT 24 h later): > 10 µM
- Photodynamic ratio (PTR) [4]: >1.4
- reduction in viability ([4]; normal fibroblasts, irradiated, up to 2.5 μM): ≤ 30%

Structure (SMILES): CC1(C)C(=CC2=C(NCc3ccc4ccc5cccc6ccc3c4c56)C(=CC3=[N+](CCCc4ccccc4)c4ccccc4C3(C)C)C2=O)N(CCCc2ccccc2)c2ccccc21.[I-] [Dye 14, 2-({3-[3,3-dimethyl-1-(3-phenylpropyl)indolin-2-ylidenemethyl]-4-oxo-2-[(pyren-1-ylmethyl)amino]cyclobut-2-en-1-ylidene}methyl)-3,3-dimethyl-1-(3-phenylpropyl)-indol-1-ium Iodide]
- singlet oxygen quantum yield (ΦΔ) [1]: <0.01
- aggregation behavior [2]: predominantly form J-aggregates
- detection limit (DL) [3]: 361 nM
- quantification limit (QL) [3]: 1203 nM
- fluorescence intensity without protein (F0) [3]: 4.12 a.u.
- fluorescence intensity at the highest protein concentration (F) [3]: 115.89 a.u.
- Stokes shift (ΔS) [3]: 4 nm
- absorption maximum (λabs) [3]: 663 nm
- emission maximum (λem) [3]: 667 nm
- fluorescence quantum yield (ΦF) [3]: 0.01
- F/F0 [3]: 28.13
- incubation time to reach maximum fluorescence with HSA [3]: 24 h
- sensitivity (S) [3, 5]: 39 µM
- IC50 [4, 6]: > 10 µM
- IC50 ([4]; Dark, MTT 24 h later): > 10 µM
